The source of these data is ChEMBL document CHEMBL5346863, “Discovery of substituted benzyloxy-benzylamine inhibitors of acetyltransferase Eis and their anti-mycobacterial activity” (Eur J Med Chem, 2022).

The subject of data set [1] is Mycobacterium intracellulare. The data set is described as follows: Antibacterial activity against Mycobacterium intracellulare ATCC 13950 assessed as bacterial growth inhibition incubated for 2 to 3 weeks by resazurin dye based assay. The format is functional. Particulars: time 2-3 weeks.
Data set [2] concerns the target T1, N-acetyltransferase Eis (Mycobacterium tuberculosis (strain ATCC 25618 / H37Rv), UniProt P9WFK7).
T1 sequence (P9WFK7 whole entry): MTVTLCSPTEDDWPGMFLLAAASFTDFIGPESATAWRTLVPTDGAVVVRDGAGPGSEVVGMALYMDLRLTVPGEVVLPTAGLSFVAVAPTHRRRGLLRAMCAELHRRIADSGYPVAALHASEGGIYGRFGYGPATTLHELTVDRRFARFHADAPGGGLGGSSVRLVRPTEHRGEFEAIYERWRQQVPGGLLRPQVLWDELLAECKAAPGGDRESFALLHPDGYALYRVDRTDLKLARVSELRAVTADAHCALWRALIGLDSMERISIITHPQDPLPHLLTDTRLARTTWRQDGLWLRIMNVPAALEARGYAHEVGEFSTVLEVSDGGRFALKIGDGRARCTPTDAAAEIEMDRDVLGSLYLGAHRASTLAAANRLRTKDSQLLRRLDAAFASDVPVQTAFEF
The data set is described as follows: Binding affinity to wild-type Mycobacterium tuberculosis Eis expressed in Escherichia coli BL21(DE3) cells assessed as inhibition constant incubated for 5 mins by Ellman's method based Michaelis-Menten analysis. In general terms: Ellman's reagent forms a yellow product with free thiols.

The test system of data set [3] is Mycobacterium tuberculosis. The data set is described as follows: Antibacterial activity against Mycobacterium tuberculosis mc2 6230 K204 assessed as MIC of kanamycin A at 50 uM incubated for 24 hrs followed by kanamycin A addition measured after 6 days by alamarblue dye based assay. The format is functional. The following applies: mc2 6230 K204, 168 h, time 7 day.

The subject of data set [4] is Mycobacterium tuberculosis. The data set is described as follows: Antibacterial activity against Mycobacterium tuberculosis mc2 6230 assessed as MIC of kanamycin A at 50 uM incubated for 24 hrs followed by kanamycin A addition measured after 6 days by alamarblue dye based assay. It is filed as functional. Particulars: mc2 6230, 168 h, time 7 day. (Resazurin is reduced to fluorescent resorufin, in cell work by metabolically active cells.)

For data set [5], the system named is Mycobacterium tuberculosis. The data set is described as follows: Antibacterial activity against Mycobacterium tuberculosis mc2 6230 assessed as bacterial growth inhibition incubated 2 to 3 weeks by resazurin dye based assay. It is filed as functional. The following applies: time 2-3 weeks.
Data set [6] relates to Mycobacterium tuberculosis. In words: Antibacterial activity against Mycobacterium tuberculosis H37Rv assessed as MIC of kanamycin A at 100 uM incubated for 24 hrs followed by kanamycin A addition measured after 6 days by alamarblue dye based assay. It is filed as functional. The following applies: time 7.0 day.
The target of data set [7] is T1, N-acetyltransferase Eis. The data set is described as follows: Inhibition of wild-type Mycobacterium tuberculosis Eis expressed in Escherichia coli BL21(DE3) cells incubated for 5 mins by Ellman's method.
Data set [8] deals with Mycobacterium tuberculosis. The data set is described as follows: Antibacterial activity against Mycobacterium tuberculosis H37Ra assessed as bacterial growth inhibition incubated 2 to 3 weeks by resazurin dye based assay. The format is functional. Particulars: time 2-3 weeks.
Data set [9] concerns Mycobacterium avium. The data set is described as follows: Antibacterial activity against Mycobacterium avium ATCC 25291 assessed as bacterial growth inhibition incubated for 2 to 3 weeks by resazurin dye based assay. The format is functional. The following applies: time 2-3 weeks.
The test system of data set [10] is Mycobacterium tuberculosis. In words: Antibacterial activity against Mycobacterium tuberculosis mc2 6230 assessed as MIC of kanamycin A at 6.25 uM incubated for 24 hrs followed by kanamycin A addition measured after 6 days by alamarblue dye based assay. It is filed as functional. The following applies: mc2 6230, 168 h, time 7 day.
The test system of data set [11] is Mycobacterium parascrofulaceum. The data set is described as follows: Antibacterial activity against Mycobacterium parascrofulaceum ATCC BAA-614 assessed as bacterial growth inhibition incubated for 2 to 3 weeks by resazurin dye based assay. The format is functional. Particulars: time 2-3 weeks.
The subject of data set [12] is J774.1. In words: Cytotoxicity against mouse J774.1 cells upto 12.5 uM incubated for 24 hrs by resazurin dye based cell viability assay. Particulars: j774.1, 24 h. It is filed as toxicity.
Data set [13] concerns Mycobacterium tuberculosis. In words: Antibacterial activity against Mycobacterium tuberculosis mc2 6230 K204 assessed as MIC of kanamycin A at 6.25 uM incubated for 24 hrs followed by kanamycin A addition measured after 6 days by alamarblue dye based assay. It is filed as functional. Particulars: mc2 6230 K204, 168 h, time 7 day.
Data set [14] has as its system A549. The data set is described as follows: Cytotoxicity against human A549 cells upto 50 uM incubated for 24 hrs by resazurin dye based cell viability assay. It is filed as toxicity. Particulars: a549, 24 h.
Data set [15] relates to Mycolicibacterium smegmatis. In words: Antibacterial activity against Mycobacterium smegmatis mc2 122 assessed as bacterial growth inhibition incubated for 2 to 3 weeks by resazurin dye based assay. The format is functional. The following applies: time 2-3 weeks.
In data set [16] the test system is Mycobacteroides abscessus. The data set is described as follows: Antibacterial activity against Mycobacterium abscessus ATCC 19977 assessed as bacterial growth inhibition incubated for 2 to 3 weeks by resazurin dye based assay. It is filed as functional. The following applies: time 2-3 weeks.
The subject of data set [17] is A549. In words: Cytotoxicity against human A549 cells upto 12.5 uM incubated for 24 hrs by resazurin dye based cell viability assay. The following applies: a549, 24 h. The format is toxicity.
Data set [18] deals with HEK293. In words: Cytotoxicity against HEK293 cells upto 12.5 uM incubated for 24 hrs by resazurin dye based cell viability assay. It is filed as toxicity. Particulars: human, hek293, 24 h.
The subject of data set [19] is HEK293. In words: Cytotoxicity against HEK293 cells <=50 uM incubated for 24 hrs by resazurin dye based cell viability assay. The format is toxicity. Particulars: human, hek293, 24 h.
Data set [20] has as its system J774.1. The data set is described as follows: Cytotoxicity against mouse J774.1 cells <=50 uM incubated for 24 hrs by resazurin dye based cell viability assay. The format is toxicity. Particulars: j774.1, 24 h.
In data set [21] the test system is J774.1. In words: Cytotoxicity against mouse J774.1 cells at 200 uM incubated for 24 hrs by resazurin dye based cell viability assay. The format is toxicity. Particulars: j774.1, 24 h.
Data set [22] deals with A549. The data set is described as follows: Cytotoxicity against human A549 cells at 200 uM incubated for 24 hrs by resazurin dye based cell viability assay. It is filed as toxicity. Particulars: a549, 24 h.
In data set [23] the test system is HEK293. In words: Cytotoxicity against HEK293 cells at 200 uM incubated for 24 hrs by resazurin dye based cell viability assay. The format is toxicity. The following applies: human, hek293, 24 h.
Data set [24] has as its system Mycobacterium tuberculosis. The data set is described as follows: Antibacterial activity against Mycobacterium tuberculosis K204 assessed as MIC of kanamycin A at 106 uM incubated for 24 hrs followed by kanamycin A addition measured after 6 days by alamarblue dye based assay. The following applies: time 7.0 day. The format is functional, organism-based.
For data set [25], the system named is Mycobacterium tuberculosis. The data set is described as follows: Antibacterial activity against Mycobacterium tuberculosis H37Rv assessed as MIC of kanamycin A at 106 uM incubated for 24 hrs followed by kanamycin A addition measured after 6 days by alamarblue dye based assay. Particulars: time 7.0 day. It is filed as functional, organism-based.
Data set [26] deals with Mycobacterium tuberculosis. In words: Antibacterial activity against Mycobacterium tuberculosis mc2 6230 assessed as bacterial growth inhibition measured after 6 days by alamarblue dye based assay. The format is functional. The following applies: mc2 6230, 144 h, time 6 day.
Data set [27] deals with Mycobacterium tuberculosis. In words: Antibacterial activity against Mycobacterium tuberculosis mc2 6230 K204 assessed as bacterial growth inhibition measured after 6 days by alamarblue dye based assay. The following applies: mc2 6230 K204, 144 h, time 6 day. The format is functional.
Data set [28] relates to Mycobacterium tuberculosis. In words: Antibacterial activity against Mycobacterium tuberculosis H37Rv assessed as bacterial growth inhibition measured after 6 days by alamarblue dye based assay. The format is functional. Particulars: 144 h, time 6 day.
Data set [29] concerns Mycobacterium tuberculosis. In words: Antibacterial activity against Mycobacterium tuberculosis mc2 6230 assessed as MIC of kanamycin A at 25 uM incubated for 24 hrs followed by kanamycin A addition measured after 6 days by alamarblue dye based assay. The format is functional. Particulars: mc2 6230, 168 h, time 7 day.
Data set [30] concerns Mycobacterium tuberculosis. The data set is described as follows: Antibacterial activity against Mycobacterium tuberculosis mc2 6230 K204 assessed as MIC of kanamycin A at 25 uM incubated for 24 hrs followed by kanamycin A addition measured after 6 days by alamarblue dye based assay. The format is functional. The following applies: Mycobacterium tuberculosis, mc2 6230 K204, 168 h, time 7 day, read-out: MIC.

For data set [31], the system named is A549. The data set is described as follows: Cytotoxicity against human A549 cells >=50 uM incubated for 24 hrs by resazurin dye based cell viability assay. It is filed as toxicity. The following applies: a549, 24 h.
The subject of data set [32] is Mycobacterium tuberculosis. The data set is described as follows: Antibacterial activity against Mycobacterium tuberculosis K204 assessed as MIC of kanamycin A at 97.9 uM incubated for 24 hrs followed by kanamycin A addition measured after 6 days by alamarblue dye based assay. It is filed as functional, organism-based. The following applies: time 7.0 day.
Data set [33] relates to Mycobacterium tuberculosis. The data set is described as follows: Antibacterial activity against Mycobacterium tuberculosis H37Rv assessed as MIC of kanamycin A at 97.9 uM incubated for 24 hrs followed by kanamycin A addition measured after 6 days by alamarblue dye based assay. It is filed as functional, organism-based. Particulars: time 7.0 day.

Values after ≈ are worked out from the molar mass of the structure shown. Active and inactive are the calls of the source.

Turning to `Brc1ccc(COc2ccccc2CNCc2ccccc2)cc1`, the MIC (in general, the smallest concentration in the dilution series that meets the test's criterion for growth inhibition) in data set [1] is 31.3 µM (≈ 12 µg/mL); in data set [3], over 10 µM; in data set [4] it was under 1.25 µM; in data set [5], 100 µM (≈ 38.2 µg/mL); in data set [8] it was 31.3 µM (≈ 12 µg/mL); in [9] it was over 62.5 µM. Besides, in data set [2], the inhibition constant Ki – broadly, a dissociation constant, usually derived from enzyme kinetics or from competition with a known ligand – was determined as 5260 nM. The result in data set [6] was Active. It took 1300 nM to reach half-maximal inhibition in data set [7] (IC50).

Take `Clc1ccc(COc2ccc(CNCc3ccccc3)cc2)cc1`: the MIC in data set [10] is under 1.25 µM; in data set [11] it was 15.6 µM (≈ 5.27 µg/mL); in data set [5], 12.5 µM (≈ 4.22 µg/mL); in data set [13], under 1.25 µM; in [15], 15.6 µM (≈ 5.27 µg/mL); in data set [8], 3.9 µM (≈ 1.32 µg/mL). For the same compound, the minimal inhibitory concentration (MIC) in [16] stood at 31.3 µM (≈ 10.6 µg/mL); in [9], 62.5 µM (≈ 21.1 µg/mL). Further, the Activity result in data set [12], in data set [14], in data set [17], in [18], in data set [19] and in data set [20] was “Non-Toxic” in each case. In addition, the result in [6] was Active. In addition, in data set [7], the concentration for half-maximal inhibition (IC50) – broadly, the concentration that inhibits the measured activity by half – is over 200000 nM.

Turning to `Clc1ccc(COc2ccc(CNCc3ccncc3)cc2)cc1`, the Activity result is listed as “Toxic” in data set [21]; “Toxic” in data set [22]; “Toxic” in data set [23]; “Non-Toxic” in [12]; “Non-Toxic” in [17]; “Non-Toxic” in data set [18]. For the same compound, the minimal inhibitory concentration (MIC) is 2 µM (≈ 0.678 µg/mL) in [1]; 25 µM (≈ 8.47 µg/mL) in data set [5]; 3.9 µM (≈ 1.32 µg/mL) in data set [8]; 62.5 µM (≈ 21.2 µg/mL) in data set [16]; over 62.5 µM in [9]. The result in data set [6], in data set [24] and in data set [25] was Active. Also, in data set [7], the IC50 came to 2000 nM.

In the case of `NC[C@H]1O[C@H](O[C@H]2[C@H](O)[C@@H](O[C@H]3O[C@H](CO)[C@@H](O)[C@H](N)[C@H]3O)[C@H](N)C[C@@H]2N)[C@H](O)[C@@H](O)[C@@H]1O` [KANAMYCIN], the MIC is under 1.25 µM in data set [26], under 1.25 µM in data set [5], 320 µM (≈ 155 µg/mL) in data set [27] and 1.25 µg/mL (≈ 2.58 µM) in data set [28].

For the compound `Clc1ccc(COc2ccccc2CNCc2cccnc2)cc1`, the MIC in data set [29] is under 1.25 µM; in data set [30], over 10 µM; in data set [5], 50 µM (≈ 16.9 µg/mL); in [15], 62.5 µM (≈ 21.2 µg/mL); in data set [8], 62.5 µM (≈ 21.2 µg/mL); in [16], over 62.5 µM. Moreover, the MIC in data set [9] is over 62.5 µM. Also, the Ki in data set [2] was determined as 1160 nM. For the same compound, the Activity entry in [31] is given as “Toxic”; in data set [12] it was “Non-Toxic”; in [17], “Non-Toxic”; in [18], “Non-Toxic”. The result in [6], in data set [32] and in data set [33] was Active. The compound also yielded a 50% inhibitory concentration (IC50) in data set [7] of 2000 nM.
